Test results from US7074816B2, “1 2 4-triazole compound” (Fuji Yakuhin Co., Ltd., priority 2002, dated 2006).

biological target: T1, xanthine oxidase (Rattus norvegicus, UniProt P22985); experiment: Effect of lowering serum uric acid level in vivo (oral, Wistar rats); settings: male Wistar rats, 0.3 mg/5 ml/kg in 0.5% methylcellulose, blood collected 6 hours after administration
T1 construct: administered orally to seven-week-old male Wistar rats (4 rats per group); from tissue; host or cells: whole animal (male Wistar rats); the enzyme is endogenous and was not isolated
T1 sequence (P22985 whole entry): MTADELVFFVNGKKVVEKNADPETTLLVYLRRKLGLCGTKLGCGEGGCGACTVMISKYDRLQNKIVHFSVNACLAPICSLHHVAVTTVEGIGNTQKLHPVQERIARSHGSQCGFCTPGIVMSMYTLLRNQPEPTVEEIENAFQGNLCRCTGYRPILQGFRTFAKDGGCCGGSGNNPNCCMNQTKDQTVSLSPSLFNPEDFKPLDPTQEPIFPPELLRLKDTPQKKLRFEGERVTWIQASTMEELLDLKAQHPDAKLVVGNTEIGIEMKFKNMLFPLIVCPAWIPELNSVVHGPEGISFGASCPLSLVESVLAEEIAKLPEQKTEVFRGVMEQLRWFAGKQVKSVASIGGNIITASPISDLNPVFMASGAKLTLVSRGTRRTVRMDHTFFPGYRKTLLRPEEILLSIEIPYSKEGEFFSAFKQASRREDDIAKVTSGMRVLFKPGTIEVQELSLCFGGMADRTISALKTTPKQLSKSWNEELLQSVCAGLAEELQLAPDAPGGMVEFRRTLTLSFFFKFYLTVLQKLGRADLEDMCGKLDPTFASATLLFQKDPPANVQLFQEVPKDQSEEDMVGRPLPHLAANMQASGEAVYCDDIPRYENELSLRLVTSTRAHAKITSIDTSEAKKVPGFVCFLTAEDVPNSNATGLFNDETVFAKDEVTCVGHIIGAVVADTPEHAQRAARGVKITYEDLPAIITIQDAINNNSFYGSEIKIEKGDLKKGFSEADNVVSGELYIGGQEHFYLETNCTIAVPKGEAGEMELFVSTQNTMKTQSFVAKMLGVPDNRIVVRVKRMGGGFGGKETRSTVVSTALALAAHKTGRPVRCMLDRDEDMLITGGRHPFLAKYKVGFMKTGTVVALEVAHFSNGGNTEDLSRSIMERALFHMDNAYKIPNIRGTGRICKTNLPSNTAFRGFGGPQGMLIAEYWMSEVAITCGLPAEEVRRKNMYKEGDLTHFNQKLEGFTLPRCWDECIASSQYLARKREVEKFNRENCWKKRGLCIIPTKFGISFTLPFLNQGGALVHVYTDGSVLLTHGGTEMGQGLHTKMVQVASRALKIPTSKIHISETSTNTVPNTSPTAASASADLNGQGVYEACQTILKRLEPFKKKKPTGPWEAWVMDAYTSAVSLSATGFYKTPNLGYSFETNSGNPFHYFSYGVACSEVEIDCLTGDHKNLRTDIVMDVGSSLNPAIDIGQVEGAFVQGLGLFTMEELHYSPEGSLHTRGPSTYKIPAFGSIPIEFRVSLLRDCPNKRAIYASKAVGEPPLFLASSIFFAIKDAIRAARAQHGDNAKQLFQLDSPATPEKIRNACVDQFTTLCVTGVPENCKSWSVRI
Protocol: Method for Evaluating the Effect of Lowering Serum Uric Acid Level In Vivo
Each of the test compounds was suspended in a 0.5% methylcellulose (MC) aqueous solution and administered orally to seven-week-old male Wistar rats (4 rats per group) compulsorily through a feeding tube at a dose of 0.3 mg/5 ml/kg (1 mg/5 ml/kg for Example 17 and Compound 44 of J. Medicinal Chemistry, (1975) as a control). The blood was collected from the orbital sinus at 6 hours after administration of the test compound. Each blood sample was allowed to clot for one hour and then centrifuged at 2000×g for 10 minutes to obtain serum. The uric acid level in the serum was determined using a kit (Wako Pure Chemicals Industries, Ltd.; phosphotungstic acid method) and a reduction rate of serum uric acid level was calculated by the following formula:
Reduction rate of serum uric acid level=(1-Average serum uric acid level in the group receiving a test compound/Average serum uric acid level in the group receiving MC)×100

Reduction rate of serum uric acid level	Compound
40.0%	COCCOCOc1ccc(-c2n[nH]c(-c3ccnc(C)c3)n2)cc1C#N [Example 3, 3-[3-cyano-4-{(2-methoxy)ethoxymethyl}oxyphenyl]-5-(2-methyl-4-pyridyl)-1,2,4-triazole]
43.9%	Cc1cc(-c2nc(-c3ccc(N4CCN(C)CC4)c([N+](=O)[O-])c3)n[nH]2)ccn1 [Example 4, 3-[4-(4-methyl-1-piperazino)-3-nitrophenyl]-5-(2-methyl-4-pyridyl)-1,2,4-triazole]
39.9%	Cc1cc(-c2nc(-c3ccc(NCC(C)C)c([N+](=O)[O-])c3)n[nH]2)ccn1 [Example 5, 3-(4-isobutylamino-3-nitrophenyl)-5-(2-methyl-4-pyridyl)-1,2,4-triazole]
40.6%	Cc1cc(-c2nc(-c3ccc(Sc4ccccc4)c([N+](=O)[O-])c3)n[nH]2)ccn1 [Example 6, 5-(2-methyl-4-pyridyl)-3-(3-nitro-4-phenylthiophenyl)-1,2,4-triazole]
42.7%	Cc1cc(-c2nc(-c3ccc(SCC(C)C)c([N+](=O)[O-])c3)n[nH]2)ccn1 [Example 7, 3-(4-isobutylthio-3-nitrophenyl)-5-(2-methyl-4-pyridyl)-1,2,4-triazole]
32.5%	Cc1cc(-c2nc(-c3ccc(OCSc4ccccc4)c([N+](=O)[O-])c3)n[nH]2)ccn1 [Example 8, 5-(2-methyl-4-pyridyl)-3-(3-nitro-4-phenylthiomethyloxyphenyl)-1,2,4-triazole]
35.7%	CSCOc1ccc(-c2n[nH]c(-c3ccnc(C)c3)n2)cc1[N+](=O)[O-] [Example 9, 5-(2-methyl-4-pyridyl)-3-(4-methylthiomethyloxy-3-nitrophenyl)-1,2,4-triazole]
41.6%	Cc1cc(-c2nc(-c3ccc(OCOCc4ccccc4)c([N+](=O)[O-])c3)n[nH]2)ccn1 [Example 10, 3-(4-benzyloxymethyloxy-3-nitrophenyl)-5-(2-methyl-4-pyridyl)-1,2,4-triazole]
41.6%	Cc1cc(-c2nc(-c3ccc(OCC4CCCCO4)c([N+](=O)[O-])c3)n[nH]2)ccn1 (centres unmarked) [Example 11, 5-(2-methyl-4-pyridyl)-3-[3-nitro-4-(2-tetrahydropyranylmethyl)oxyphenyl]-1,2,4-triazole]
51.1%	N#Cc1cc(-c2nc(-c3ccncc3)n[nH]2)ccn1 [Example 12, 5-(2-cyano-4-pyridyl)-3-(4-pyridyl)-1,2,4-triazole]
36.1%	CC(C)Oc1ccc(-c2nc(-c3ccncc3)n[nH]2)cc1[N+](=O)[O-] [Example 16, 5-(4-isopropoxy-3-nitrophenyl)-3-(4-pyridyl)-1,2,4-triazole]
52.9%	COc1ccc(-c2nc(-c3ccnc(C)c3)n[nH]2)cc1[N+](=O)[O-] [Example 21, 3-(2-methyl-4-pyridyl)-5-(3-nitro-4-methoxyphenyl)-1,2,4-triazole]
32.6%	Cc1cc(-c2n[nH]c(-c3ccc(OCC4CC4)c(C#N)c3)n2)ccn1 [Example 22, 3-(2-methyl-4-pyridyl)-5-(3-cyano-4-cyclopropylmethoxyphenyl)-1,2,4-triazole]
41.1%	Cc1cc(-c2nc(-c3ccnc(C#N)c3)n[nH]2)ccn1 [Example 23, 3-(2-cyano-4-pyridyl)-5-(2-methyl-4-pyridyl)-1,2,4-triazole]
38.3%	COc1ccc(COc2ccc(-c3nc(-c4ccnc(C)c4)n[nH]3)cc2C#N)cc1 [Example 24, 3-(2-methyl-4-pyridyl)-5-[3-cyano-4-(4-methoxybenzyloxy)phenyl]-1,2,4-triazole]
47.2%	Cc1cc(-c2n[nH]c(-c3ccc(OCCC(C)C)c(C#N)c3)n2)ccn1 [Example 25, 3-(2-methyl-4-pyridyl)-5-(3-cyano-4-isopentyloxyphenyl)-1,2,4-triazole]
37.9%	COc1ccc(-c2nc(-c3ccnc(C)c3)n[nH]2)cc1C#N [Example 26, 3-(2-methyl-4-pyridyl)-5-(3-cyano-4-methoxyphenyl)-1,2,4-triazole]
32.9%	Cc1cc(-c2nc(-c3ccnc(Cl)c3)n[nH]2)ccn1 [Example 27, 3-(2-chloro-4-pyridyl)-5-(2-methyl-4-pyridyl)-1,2,4-triazole]
35.3%	C#CCOc1ccc(-c2nc(-c3ccnc(C)c3)n[nH]2)cc1C#N [Example 28, 3-(2-methyl-4-pyridyl)-5-(3-cyano-4-propargyloxyphenyl)-1,2,4-triazole]
40.7%	Cc1cc(-c2n[nH]c(-c3ccc(OCCOCCOCCCl)c(C#N)c3)n2)ccn1 [Example 29, 3-(2-methyl-4-pyridyl)-5-[3-cyano-4-{(<2-chloroethoxy>ethoxy)ethoxy}phenyl]-1,2,4-triazole]
36.5%	COCCOc1ccc(-c2nc(-c3ccnc(C)c3)n[nH]2)cc1C#N [Example 31, 3-(2-methyl-4-pyridyl)-5-(3-cyano-4-methoxyethoxyphenyl)-1,2,4-triazole]
52.0%	COCCOCCOc1ccc(-c2nc(-c3ccnc(C)c3)n[nH]2)cc1C#N [Example 32, 3-(2-methyl-4-pyridyl)-5-[3-cyano-4-{(2-methoxyethoxy)ethoxy}phenyl]-1,2,4-triazole]
44.7%	COCCOCCOCCOc1ccc(-c2nc(-c3ccnc(C)c3)n[nH]2)cc1C#N [Example 33, 3-(2-methyl-4-pyridyl)-5-[3-cyano-4-{(<2-methoxyethoxy>ethoxy)ethoxy}phenyl]-1,2,4-triazole]
46.8%	N#Cc1cc(-c2n[nH]c(-c3cc[n+]([O-])cc3)n2)ccn1 [Example 35, 3-(2-cyano-4-pyridyl)-5-(1-oxy-4-pyridyl)-1,2,4-triazole]
33.6%	N#Cc1cc(-c2n[nH]c(-c3ccnc(Cl)c3)n2)ccn1 [Example 37, 3-(2-cyano-4-pyridyl)-5-(2-chloro-4-pyridyl)-1,2,4-triazole]

Compound	Reduction rate of serum uric acid level
Cc1cc(-c2nc(-c3ccc(OCC(C)C)c([N+](=O)[O-])c3)n[nH]2)ccn1 [Example 1, 3-(4-isobutoxy-3-nitrophenyl)-5-(2-methyl-4-pyridyl)-1,2,4-triazole]	66.5%
CC(C)COc1ccc(-c2n[nH]c(-c3ccncc3)n2)cc1C#N [Example 2, 3-(3-cyano-4-isobutoxyphenyl)-5-(4-pyridyl)-1,2,4-triazole]	62.3%
CC(C)COc1ccc(-c2n[nH]c(-c3ccncc3)n2)cc1[N+](=O)[O-] [Example 13, 3-(4-isobutoxy-3-nitrophenyl)-5-(4-pyridyl)-1,2,4-triazole]	46.8%
Cc1cc(-c2nc(-c3ccc(OCC(C)C)c([N+](=O)[O-])c3)nn2COC(=O)C(C)(C)C)ccn1 [Example 14, 3-(4-isobutoxy-3-nitrophenyl)-5-(2-methyl-4-pyridyl)-N-pivaloyloxymethyl-1,2,4-triazole]	43.0%
CCCCOc1ccc(-c2n[nH]c(-c3ccncc3)n2)cc1[N+](=O)[O-] [Example 15, 3-(4-butoxy-3-nitrophenyl)-5-(4-pyridyl)-1,2,4-triazole]	41.2%
Cc1cc(-c2n[nH]c(-c3ccc(OCC(C)C)c(C#N)c3)n2)ccn1 [Example 20, 3-(2-methyl-4-pyridyl)-5-(3-cyano-4-isobutoxyphenyl)-1,2,4-triazole]	67.5%

same assay, conditions: male Wistar rats, 1 mg/5 ml/kg in 0.5% methylcellulose, blood collected 6 hours after administration

Compound	Reduction rate of serum uric acid level
CC(C)COc1ccc(-c2n[nH]c(-c3ccnc(Cl)c3)n2)cc1[N+](=O)[O-] [Example 17, 5-(2-chloro-4-pyridyl)-3-(4-isobutoxy-3-nitrophenyl)-1,2,4-triazole]	40.6%
